Source: ChEMBL document CHEMBL1914283, “Synthesis and evaluation of pyridazinone-phenethylamine derivatives as selective and orally bioavailable histamine H3 receptor antagonists with robust wake-promoting activity” (Bioorg Med Chem Lett, 2011)
Active and inactive are the calls of the source. The rule behind the calls is not given here.

Key:
Histamine H3 receptor [1] = target: T1, Histamine H3 receptor (Homo sapiens, UniProt Q9Y5N1); test: Displacement of [3H]NAMH from human H3R expressed in CHO cells; type: cell-based
Target sequence in this assay (Q9Y5N1 whole entry): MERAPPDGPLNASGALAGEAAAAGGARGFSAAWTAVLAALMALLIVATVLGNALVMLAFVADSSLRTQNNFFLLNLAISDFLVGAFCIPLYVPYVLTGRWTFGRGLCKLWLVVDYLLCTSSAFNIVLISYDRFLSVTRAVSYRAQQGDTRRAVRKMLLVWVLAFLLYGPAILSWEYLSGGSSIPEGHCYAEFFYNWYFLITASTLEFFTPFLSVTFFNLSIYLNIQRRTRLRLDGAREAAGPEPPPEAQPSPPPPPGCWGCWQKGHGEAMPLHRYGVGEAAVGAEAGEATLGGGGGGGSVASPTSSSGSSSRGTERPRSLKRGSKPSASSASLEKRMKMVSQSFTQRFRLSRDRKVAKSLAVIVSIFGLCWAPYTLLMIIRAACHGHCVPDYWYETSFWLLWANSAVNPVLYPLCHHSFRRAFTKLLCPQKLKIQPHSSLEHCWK

Histamine H3 receptor [2] = target: Histamine H3 receptor (Rattus norvegicus, UniProt Q9QYN8); test: Displacement of [3H]NAMH from rat H3R expressed in CHO cells; type: cell-based
Sequence of Histamine H3 receptor (Rattus norvegicus, UniProt Q9QYN8) (Q9QYN8 whole entry): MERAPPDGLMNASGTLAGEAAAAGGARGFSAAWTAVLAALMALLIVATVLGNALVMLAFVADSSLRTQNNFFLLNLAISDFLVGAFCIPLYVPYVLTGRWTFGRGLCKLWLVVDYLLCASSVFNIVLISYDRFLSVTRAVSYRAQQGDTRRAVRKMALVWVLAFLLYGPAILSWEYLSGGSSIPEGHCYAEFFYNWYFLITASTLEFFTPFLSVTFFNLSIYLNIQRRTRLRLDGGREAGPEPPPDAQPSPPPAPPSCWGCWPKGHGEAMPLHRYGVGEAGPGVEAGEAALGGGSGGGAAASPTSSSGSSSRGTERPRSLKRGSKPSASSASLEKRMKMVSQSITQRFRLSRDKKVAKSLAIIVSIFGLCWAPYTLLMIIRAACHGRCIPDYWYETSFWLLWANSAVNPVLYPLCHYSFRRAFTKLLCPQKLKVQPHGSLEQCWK

Histamine H3 receptor [3] = target: T1, Histamine H3 receptor; test: Inverse agonist activity at human H3R expressed in CHO cells assessed as inhibition of R-alpha-methylhistamine-induced [35S]GTPgammaS binding; type: functional, cell-based
Target sequence in this assay (Q9Y5N1 whole entry): as the sequence (Q9Y5N1 whole entry) above

[4] = Metabolic stability in mouse liver microsomes assessed as half life; type: ADME, Microsome
[5] = Metabolic stability in rat liver microsomes assessed as half life; type: ADME, Microsome
[6] = Metabolic stability in dog liver microsomes assessed as half life; type: ADME, Canis lupus familiaris, Microsome
[7] = Metabolic stability in human liver microsomes assessed as half life; type: ADME, Microsome
Cytochrome P450 1A2 = target: T2, Cytochrome P450 1A2 (Homo sapiens, UniProt P05177); test: Inhibition of CYP1A2; type: ADME
T2 sequence (P05177 whole entry): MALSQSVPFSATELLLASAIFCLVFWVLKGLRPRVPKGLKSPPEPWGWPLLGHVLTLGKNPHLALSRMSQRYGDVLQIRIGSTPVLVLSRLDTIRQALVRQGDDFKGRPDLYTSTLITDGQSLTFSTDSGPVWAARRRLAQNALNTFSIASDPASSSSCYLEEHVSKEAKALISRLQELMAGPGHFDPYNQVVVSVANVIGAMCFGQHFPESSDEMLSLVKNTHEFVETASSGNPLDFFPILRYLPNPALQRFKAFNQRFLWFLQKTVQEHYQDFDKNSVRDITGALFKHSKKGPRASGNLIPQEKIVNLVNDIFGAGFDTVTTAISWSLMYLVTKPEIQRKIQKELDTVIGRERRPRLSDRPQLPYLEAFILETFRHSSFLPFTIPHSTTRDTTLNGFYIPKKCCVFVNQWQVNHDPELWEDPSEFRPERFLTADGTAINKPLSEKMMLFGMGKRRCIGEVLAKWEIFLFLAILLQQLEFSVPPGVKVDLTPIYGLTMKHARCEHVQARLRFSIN

Cytochrome P450 2C9 = Cytochrome P450 2C9 (Homo sapiens, UniProt P11712); test: Inhibition of CYP2C9; type: ADME
Sequence of Cytochrome P450 2C9 (P11712 whole entry): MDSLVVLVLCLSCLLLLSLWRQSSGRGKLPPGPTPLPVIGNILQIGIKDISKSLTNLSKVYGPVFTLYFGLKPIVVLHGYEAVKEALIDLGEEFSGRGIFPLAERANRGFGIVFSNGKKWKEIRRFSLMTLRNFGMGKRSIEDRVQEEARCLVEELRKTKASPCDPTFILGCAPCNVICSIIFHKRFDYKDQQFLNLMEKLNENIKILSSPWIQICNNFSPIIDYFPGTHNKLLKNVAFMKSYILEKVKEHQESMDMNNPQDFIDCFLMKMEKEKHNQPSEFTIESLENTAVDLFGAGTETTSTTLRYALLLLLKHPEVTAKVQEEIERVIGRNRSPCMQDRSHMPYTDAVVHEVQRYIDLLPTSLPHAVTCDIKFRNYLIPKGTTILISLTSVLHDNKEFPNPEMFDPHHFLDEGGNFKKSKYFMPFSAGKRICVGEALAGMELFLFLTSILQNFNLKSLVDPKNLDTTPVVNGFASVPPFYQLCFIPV

Cytochrome P450 2C19 = Cytochrome P450 2C19 (Homo sapiens, UniProt P33261); test: Inhibition of CYP2C19; type: ADME
Sequence of Cytochrome P450 2C19 (P33261 whole entry): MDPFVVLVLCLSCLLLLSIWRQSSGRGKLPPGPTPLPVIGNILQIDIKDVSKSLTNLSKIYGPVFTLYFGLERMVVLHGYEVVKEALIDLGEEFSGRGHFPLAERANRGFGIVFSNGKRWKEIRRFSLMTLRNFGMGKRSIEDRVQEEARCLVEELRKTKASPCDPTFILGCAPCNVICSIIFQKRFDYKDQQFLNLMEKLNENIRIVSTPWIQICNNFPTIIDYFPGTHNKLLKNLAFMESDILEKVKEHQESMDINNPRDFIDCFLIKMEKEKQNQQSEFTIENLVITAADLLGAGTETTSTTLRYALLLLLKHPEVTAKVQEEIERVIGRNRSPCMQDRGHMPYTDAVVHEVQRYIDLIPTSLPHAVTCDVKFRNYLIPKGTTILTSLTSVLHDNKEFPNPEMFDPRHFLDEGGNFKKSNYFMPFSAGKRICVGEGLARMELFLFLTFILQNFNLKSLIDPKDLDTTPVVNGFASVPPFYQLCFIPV

Cytochrome P450 2D6 = Cytochrome P450 2D6 (Homo sapiens, UniProt P10635); test: Inhibition of CYP2D6; type: ADME
Sequence of Cytochrome P450 2D6 (P10635 whole entry): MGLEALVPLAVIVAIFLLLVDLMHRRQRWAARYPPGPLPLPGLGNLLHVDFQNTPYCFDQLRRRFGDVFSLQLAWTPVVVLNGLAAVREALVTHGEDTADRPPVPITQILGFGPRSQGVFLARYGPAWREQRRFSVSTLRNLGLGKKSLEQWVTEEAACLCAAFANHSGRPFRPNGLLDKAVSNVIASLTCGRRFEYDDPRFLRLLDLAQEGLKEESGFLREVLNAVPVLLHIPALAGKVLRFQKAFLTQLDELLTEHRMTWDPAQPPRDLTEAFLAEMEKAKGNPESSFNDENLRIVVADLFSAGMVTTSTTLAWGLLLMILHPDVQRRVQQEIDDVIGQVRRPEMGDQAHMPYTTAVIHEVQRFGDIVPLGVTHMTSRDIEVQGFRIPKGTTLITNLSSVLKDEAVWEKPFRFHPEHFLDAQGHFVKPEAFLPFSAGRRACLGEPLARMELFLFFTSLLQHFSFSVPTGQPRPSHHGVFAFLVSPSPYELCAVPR

Cytochrome P450 3A4 = Cytochrome P450 3A4 (Homo sapiens, UniProt P08684); test: Inhibition of CYP3A4; type: ADME
Sequence of Cytochrome P450 3A4 (P08684 whole entry): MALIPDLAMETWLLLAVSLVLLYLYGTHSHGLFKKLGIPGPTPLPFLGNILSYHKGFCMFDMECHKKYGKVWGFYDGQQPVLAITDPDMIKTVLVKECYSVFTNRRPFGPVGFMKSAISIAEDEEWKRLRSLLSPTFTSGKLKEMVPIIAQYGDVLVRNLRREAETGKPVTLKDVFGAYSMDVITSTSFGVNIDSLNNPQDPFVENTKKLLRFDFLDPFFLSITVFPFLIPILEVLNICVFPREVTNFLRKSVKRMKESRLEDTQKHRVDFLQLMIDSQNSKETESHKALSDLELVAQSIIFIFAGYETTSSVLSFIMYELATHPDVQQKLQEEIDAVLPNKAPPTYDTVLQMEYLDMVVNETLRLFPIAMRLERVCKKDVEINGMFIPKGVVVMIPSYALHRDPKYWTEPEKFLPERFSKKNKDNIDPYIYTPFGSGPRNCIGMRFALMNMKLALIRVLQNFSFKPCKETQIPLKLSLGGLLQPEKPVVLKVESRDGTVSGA

[8] = target: Histamine H1 receptor (Homo sapiens) (UniProt P35367); test: Inhibition of human H1R at 10 uM
Sequence of Histamine H1 receptor (Homo sapiens) (P35367 whole entry): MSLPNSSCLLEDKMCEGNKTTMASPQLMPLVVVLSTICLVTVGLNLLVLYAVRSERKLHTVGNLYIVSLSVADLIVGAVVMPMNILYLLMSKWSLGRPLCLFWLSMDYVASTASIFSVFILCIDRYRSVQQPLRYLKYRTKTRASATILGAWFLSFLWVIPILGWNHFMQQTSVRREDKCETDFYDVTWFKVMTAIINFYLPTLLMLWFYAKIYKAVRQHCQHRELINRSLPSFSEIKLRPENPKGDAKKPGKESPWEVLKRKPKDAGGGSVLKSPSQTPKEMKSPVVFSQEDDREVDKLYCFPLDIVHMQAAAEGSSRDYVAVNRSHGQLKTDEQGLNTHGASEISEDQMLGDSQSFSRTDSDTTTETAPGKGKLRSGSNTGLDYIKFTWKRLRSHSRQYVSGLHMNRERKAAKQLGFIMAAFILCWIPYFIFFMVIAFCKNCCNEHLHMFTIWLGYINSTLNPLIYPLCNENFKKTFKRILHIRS

[9] = target: Histamine H2 receptor (Homo sapiens) (UniProt P25021); test: Inhibition of human H2R at 10 uM
Sequence of Histamine H2 receptor (Homo sapiens) (P25021 whole entry): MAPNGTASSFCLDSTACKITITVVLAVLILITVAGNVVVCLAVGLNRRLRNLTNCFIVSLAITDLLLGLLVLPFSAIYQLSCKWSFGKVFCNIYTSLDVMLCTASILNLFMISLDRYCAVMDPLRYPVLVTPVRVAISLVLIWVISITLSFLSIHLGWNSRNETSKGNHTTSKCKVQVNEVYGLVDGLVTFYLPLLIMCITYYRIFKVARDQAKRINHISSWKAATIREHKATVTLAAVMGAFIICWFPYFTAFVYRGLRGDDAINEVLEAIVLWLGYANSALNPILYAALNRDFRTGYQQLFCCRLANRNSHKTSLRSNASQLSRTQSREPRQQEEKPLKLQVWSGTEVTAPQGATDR

[10] = target: Histamine H4 receptor (Homo sapiens) (UniProt Q9H3N8); test: Inhibition of human H4R at 10 uM
Sequence of Histamine H4 receptor (Homo sapiens) (Q9H3N8 whole entry): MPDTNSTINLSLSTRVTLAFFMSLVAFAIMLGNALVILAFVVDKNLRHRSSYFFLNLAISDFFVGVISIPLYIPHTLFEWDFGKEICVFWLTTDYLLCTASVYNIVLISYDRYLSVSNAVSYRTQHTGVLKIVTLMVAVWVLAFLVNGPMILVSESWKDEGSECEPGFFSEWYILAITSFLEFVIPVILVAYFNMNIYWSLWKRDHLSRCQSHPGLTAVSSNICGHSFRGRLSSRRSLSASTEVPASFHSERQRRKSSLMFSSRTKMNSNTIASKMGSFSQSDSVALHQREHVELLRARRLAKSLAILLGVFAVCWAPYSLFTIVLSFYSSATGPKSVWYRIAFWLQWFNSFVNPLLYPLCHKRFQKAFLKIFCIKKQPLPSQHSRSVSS

[11] = AUC (0 to infinity) in rat at 1 mg/kg, iv; type: ADME, organism-based; parameters: time infinity, dose 1 mg/kg, route intravenous; conditions: plasma
[12] = Half life in rat at 1 mg/kg, iv; type: ADME, organism-based; parameters: dose 1 mg/kg, route intravenous; conditions: in vivo
[13] = Volume of distribution in rat at 1 mg/kg, iv; type: ADME, organism-based; parameters: dose 1 mg/kg, route intravenous; conditions: in vivo
[14] = Clearance in rat at 1 mg/kg, iv; type: ADME, organism-based; parameters: dose 1 mg/kg, route intravenous; conditions: in vivo
[15] = AUC (0 to infinity) in rat at 5 mg/kg, po; type: ADME, organism-based; parameters: time infinity, dose 5 mg/kg, route oral; conditions: plasma
[16] = Cmax in rat at 5 mg/kg, po; type: ADME, organism-based; parameters: dose 5 mg/kg, route oral; conditions: in vivo
[17] = Oral bioavailability in rat at 5 mg/kg; type: ADME, organism-based; conditions: in vivo
[18] = Ratio of drug level from brain to plasma of rat at 10 mg/kg, ip after 1 hr; type: ADME, organism-based; parameters: dose 10 mg/kg, route intraperitoneal; conditions: read-out: BPR
Rattus norvegicus [19] = test: Inhibition of R-alpha-methylhistamine-induced water intake in ip dosed rat dipsogenia model; type: functional
Rattus norvegicus [20] = test: Wake promoting activity in ip dosed Sprague-Dawley rat EEG/EMG model assessed as cumulative wake time; type: functional, organism-based
Rattus norvegicus [21] = test: Wake promoting activity in Sprague-Dawley rat EEG/EMG model assessed as cumulative wake time at 10 mg/kg, ip; type: functional; conditions: route intraperitoneal
Rattus norvegicus [22] = test: Wake promoting activity in Sprague-Dawley rat EEG/EMG model assessed as increase in cumulative wake time at 30 mg/kg, ip up to 4.5 hrs; type: functional, organism-based; parameters: dose 30 mg/kg
Rattus norvegicus [23] = test: Wake promoting activity in Sprague-Dawley rat EEG/EMG model assessed as cumulative wake time at 30 mg/kg, ip after 7 hrs; type: functional; conditions: route intraperitoneal
Rattus norvegicus [24] = test: Wake promoting activity in Sprague-Dawley rat EEG/EMG model assessed as cumulative wake time at 30 mg/kg, ip; type: functional; conditions: route intraperitoneal
Rattus norvegicus [25] = test: Wake promoting activity in Sprague-Dawley rat EEG/EMG model assessed as sleep rebound at 3 to 30 mg/kg, ip; type: functional, organism-based
Rattus norvegicus [26] = test: Wake promoting activity in Sprague-Dawley rat EEG/EMG model assessed as increase in cumulative wake time at 30 mg/kg, ip up to 4 hrs; type: functional; conditions: route intraperitoneal
Rattus norvegicus [27] = test: Wake promoting activity in Sprague-Dawley rat EEG/EMG model assessed as increase in cumulative wake time at 30 mg/kg, ip relative to vehicle treated animals; type: functional; conditions: route intraperitoneal
Rattus norvegicus [28] = test: Toxicity in Sprague-Dawley rat EEG/EMG model assessed as EEG abnormality at 3 to 30 mg/kg, ip; type: organism-based; parameters: dose 3-30 mg/kg, route intraperitoneal; conditions: in vivo
Histamine H3 receptor [29] = target: T1, Histamine H3 receptor; test: Antagonist activity at human H3R expressed in CHO cells assessed as inhibition of R-alpha-methylhistamine-induced [35S]GTPgammaS binding; type: functional, cell-based
Target sequence in this assay (Q9Y5N1 whole entry): as the sequence (Q9Y5N1 whole entry) above

Histamine H3 receptor [30] = target: T1, Histamine H3 receptor; test: Antagonist activity at human H3R expressed in CHO cells assessed as inhibition of R-alpha-methylhistamine-induced [35S]GTPgammaS binding
Target sequence in this assay (Q9Y5N1 whole entry, looked up): as the sequence (Q9Y5N1 whole entry) above

[31] = Aqueous solubility of the compound at pH 2; type: physicochemical; conditions: buffer
[32] = Aqueous solubility of the compound at pH 7.4; type: physicochemical; conditions: buffer
Rattus norvegicus [33] = test: Wake promoting activity in Sprague-Dawley rat EEG/EMG model assessed as increase in cumulative wake time at 30 mg/kg, ip up to 7.5 hrs; type: functional, organism-based; parameters: dose 30 mg/kg
Rattus norvegicus [34] = test: Wake promoting activity in Sprague-Dawley rat EEG/EMG model assessed as sleep rebound at 3 to 30 mg/kg, ip up to 22 hrs; type: functional, organism-based

SMILES: C[C@@H]1CCCN1CCc1ccc(-c2ccc(=O)n(Cc3ccccc3)n2)cc1
- Ki (Histamine H3 receptor [1]): 5 nM
- Ki (Histamine H3 receptor [2]): 18 nM

SMILES: C[C@@H]1CCCN1CCc1ccc(-c2ccc(=O)n(-c3ccccn3)n2)cc1
- Ki (Histamine H3 receptor [1]): 47 nM
- Ki (Histamine H3 receptor [2]): 242 nM

SMILES: C[C@@H]1CCCN1CCc1ccc(-c2ccc(=O)n(C)n2)cc1
- EC50 (Histamine H3 receptor [3]): 2 nM
- half-life [4]: 25 min
- half-life [5]: 39 min
- half-life [6]: > 40 min
- half-life [7]: > 40 min
- IC50 (Cytochrome P450 1A2): > 30000 nM
- IC50 (Cytochrome P450 2C9): > 30000 nM
- IC50 (Cytochrome P450 2C19): > 30000 nM
- IC50 (Cytochrome P450 2D6): > 30000 nM
- IC50 (Cytochrome P450 3A4): > 30000 nM
- inhibition [8]: < 30%
- inhibition [9]: < 30%
- inhibition [10]: < 30%
- AUC(0-inf) [11]: 1650 ng·h/mL
- half-life [12]: 30 min
- Vd [13]: 0.6 L/kg
- clearance [14]: 12 mL/min/kg
- AUC(0-inf) [15]: 28 ng·h/mL
- Cmax [16]: 18 ng/mL
- bioavailability [17]: < 1%
- Kp at 1 h [18]: 6
- ED50 (Rattus norvegicus [19]): 0.07 mg/kg
- inhibition (Rattus norvegicus [19]): Dose-dependent effect
- Time (Rattus norvegicus [20]): Dose-dependent effect
- Time (Rattus norvegicus [21]): 161 min
- Activity (Rattus norvegicus [22]): Active
- Time (Rattus norvegicus [23]): 200 min
- Time (Rattus norvegicus [24]): 235 min
- Activity (Rattus norvegicus [25]): inactive
- Activity (Rattus norvegicus [26]): 98%
- Activity (Rattus norvegicus [27]): 68%
- Activity (Rattus norvegicus [28]): Non-toxic
- Ki (Histamine H3 receptor [1]): 7 nM
- Ki (Histamine H3 receptor [2]): 58 nM
- Activity (Histamine H3 receptor [29]): Active
- Activity (Histamine H3 receptor [30]): Active

SMILES: C[C@@H]1CCCN1CCc1ccc(-c2ccc(=O)[nH]n2)cc1
- Ki (Histamine H3 receptor [1]): 31 nM
- Ki (Histamine H3 receptor [2]): 43 nM

SMILES: C[C@@H]1CCCN1CCc1ccc(-c2ccc(=O)n(-c3ccc(F)cc3)n2)cc1
- EC50 (Histamine H3 receptor [3]): 2.1 nM
- half-life [4]: > 40 min
- half-life [5]: > 40 min
- half-life [6]: > 40 min
- half-life [7]: > 40 min
- IC50 (Cytochrome P450 1A2): > 30000 nM
- IC50 (Cytochrome P450 2C9): > 30000 nM
- IC50 (Cytochrome P450 2C19): > 30000 nM
- IC50 (Cytochrome P450 2D6): > 30000 nM
- IC50 (Cytochrome P450 3A4): > 30000 nM
- inhibition [8]: < 30%
- inhibition [9]: < 30%
- inhibition [10]: < 30%
- AUC(0-inf) [11]: 1300 ng·h/mL
- half-life [12]: 138 min
- Vd [13]: 4.8 L/kg
- clearance [14]: 21 mL/min/kg
- AUC(0-inf) [15]: 1730 ng·h/mL
- Cmax [16]: 255 ng/mL
- bioavailability [17]: 27%
- Kp at 1 h [18]: 11
- solubility [31]: > 125 µg/mL
- solubility [32]: > 125 µg/mL
- ED50 (Rattus norvegicus [19]): 0.02 mg/kg
- inhibition (Rattus norvegicus [19]): Dose-dependent effect
- Time (Rattus norvegicus [21]): 207 min
- Activity (Rattus norvegicus [26]): 94%
- Activity (Rattus norvegicus [33]): Active
- Activity (Rattus norvegicus [34]): inactive
- Activity (Rattus norvegicus [28]): Non-toxic
- Ki (Histamine H3 receptor [1]): 13 nM
- Ki (Histamine H3 receptor [2]): 48 nM
- Activity (Histamine H3 receptor [29]): Active
- Activity (Histamine H3 receptor [30]): Active

SMILES: C[C@@H]1CCCN1CCc1ccc(-c2ccc(=O)n(-c3ccc(Cl)cc3)n2)cc1
- Ki (Histamine H3 receptor [1]): 8 nM
- Ki (Histamine H3 receptor [2]): 26 nM

SMILES: Cn1nc(-c2ccc(CCN3CCCC3)cc2)ccc1=O
- Ki (Histamine H3 receptor [1]): 83 nM
- Ki (Histamine H3 receptor [2]): 135 nM

SMILES: C[C@@H]1CCCN1CCCOc1ccc(-c2ccc(=O)[nH]n2)cc1 [IRDABISANT]
- Ki (Histamine H3 receptor [2]): 7 nM

SMILES: C[C@@H]1CCCN1CCc1ccc(-c2ccc(=O)n(-c3ccccc3)n2)cc1
- Ki (Histamine H3 receptor [1]): 34 nM
- Ki (Histamine H3 receptor [2]): 42 nM
